Measurements: patent US10709719B2, “Substituted bicyclic compounds” (BRISTOL-MYERS SQUIBB COMPANY, priority 2014, dated 2020)
Entries after “also recorded” stand apart in the source; their conditions may differ.

Tests used:
S1P1 = S1P1 (Homo sapiens (Human), UniProt P21453); test: Receptor [35S]GTPγS binding assay (S1P1 GTPγS), membranes from S1P1/CHO cells; type: biochemical; conditions: result in words
Experimental: Compounds were loaded in a 384 Falcon v-bottom plate (0.5 μl/well in a 11 point, 3-fold dilution). Membranes prepared from S1P1/CHO cells or EDG3-Gal5-bla HEK293T cells (EDG3 equivalent S1P3) were added to the compound plate (40 μl/well, final protein 3 μg/well) with MULTIDROP®. […] 40 μl of the [^35S] GTP solution was added to the compound plate with a final concentration of 0.2 nM. The reaction was kept at room temperature for 45 min. At the end of incubation, all the mixtures in the compound plate were transferred to Millipore 384-well FB filter plates via the VELOCITY11® Vprep liquid handler. The filter plate was washed with water 4 times by using the manifold Embla plate washer and dried at 60° C. for 45 min. MicroScint 20 scintillation fluid (30 μl) was added to each well for counting on the Packard TOPCOUNT®.
A larger value for the GTPγS S1P3 EC50 value indicated less activity in the GTPγS S1P3 binding assay.

S1P3 (EDG3) = S1P3 (EDG3) (Homo sapiens (Human), UniProt Q99500); test: Receptor [35S]GTPγS binding assay (S1P3 GTPγS), membranes from EDG3-Gal5-bla HEK293T cells; type: biochemical; conditions: GTPγS S1P1 versus S1P3, result in words
Sequence of S1P3 (EDG3) (Q99500 whole entry): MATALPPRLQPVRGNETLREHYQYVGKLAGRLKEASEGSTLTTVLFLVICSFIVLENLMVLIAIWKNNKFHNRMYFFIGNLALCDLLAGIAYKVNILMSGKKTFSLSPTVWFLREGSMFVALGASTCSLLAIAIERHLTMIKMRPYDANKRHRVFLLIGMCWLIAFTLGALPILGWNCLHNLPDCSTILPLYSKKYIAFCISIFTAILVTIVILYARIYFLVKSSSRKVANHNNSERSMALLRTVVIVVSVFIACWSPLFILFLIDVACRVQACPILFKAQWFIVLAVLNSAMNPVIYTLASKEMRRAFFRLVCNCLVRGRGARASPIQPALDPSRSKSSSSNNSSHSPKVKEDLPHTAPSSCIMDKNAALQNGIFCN
Experimental: Compounds were loaded in a 384 Falcon v-bottom plate (0.5 μl/well in a 11 point, 3-fold dilution). Membranes prepared from S1P1/CHO cells or EDG3-Gal5-bla HEK293T cells (EDG3 equivalent S1P3) were added to the compound plate (40 μl/well, final protein 3 μg/well) with MULTIDROP®. [^35S]GTP (1250 Ci/mmol, Perkin Elmer) was diluted in assay buffer: 20 mM HEPES, pH7.5, 10 mM MgCl2, 150 mM NaCl, 1 mM EGTA(ethylene glycol tetraacetic acid), 1 mM DTT (Dithiothreitol), 10 μM GDP, 0.1% fatty acid free BSA, and 10 μg/ml Saponin to 0.4 nM. 40 μl of the [^35S] GTP solution was added to the compound plate with a final concentration of 0.2 nM. The reaction was kept at room temperature for 45 min. At the end of incubation, all the mixtures in the compound plate were transferred to Millipore 384-well FB filter plates via the VELOCITY11® Vprep liquid handler. The filter plate was washed with water 4 times by using the manifold Embla plate washer and dried at 60° C. for 45 min. MicroScint 20 scintillation fluid (30 μl) was added to each well for counting on the Packard TOPCOUNT®.
A smaller value for GTPγS S1P EC50 value indicated greater activity for the compound in the GTPγS S1P binding assay. A larger value for the GTPγS S1P3 EC50 value indicated less activity in the GTPγS S1P3 binding assay. […]

[1] = system: adjuvant-induced arthritis, hind paw volume; test: Rat adjuvant induced arthritis assay (AA); type: in vivo, Lewis rats; conditions: Lewis rat, prophylactic oral dosing regimen
Experimental: The rat adjuvant-induced arthritis model is an animal model for human rheumatoid arthritis. Male Lewis rats (150-175 g; Harlan, n=8 treatment group) were immunized at the base of the tail with 100 μl of 10 mg/ml freshly ground Mycobacterium butyricum (Difco Laboratories) in incomplete Freund's adjuvant (sigma). Animals were dosed once daily with the test article (as a solution or suspension in the vehicle) or vehicle alone (polyethylene glycol 300, “PEG300”) starting from the day of immunization. The volumes of their hind paws were measured in a water displacement plethysmometer (Ugo Basile, Italy). The baseline paw measurements were taken before onset of the disease (between day 7 to day 10). The paw measurements were then taken three times a week until the end of the study on day 20 to 21. All procedures involving animals were reviewed and approved by the Institutional Animal Care Use Committee.

[2] = system: experimental autoimmune encephalomyelitis, clinical score; test: Rat experimental autoimmune encephalomyelitis (EAE); type: in vivo, Lewis rats; conditions: Lewis rat, prophylactic oral dosing regimen
Experimental: Female Lewis rats (150-200 g; Harlan) were immunized at the base of the tail with 0.1 ml of a complete Freund's adjuvant emulsion containing 0.5 mg/mL guinea pig myelin basic protein (Genemed Synthesis) and 2 mg/mL Mycobacterium butyricum (Difco). Beginning on Day 7, rats (n=11/group) were scored individually at least 3×/wk according to the following scheme: [table] Average clinical scores were calculated for each treatment group on each day of assessment.

[3] = system: experimental autoimmune encephalomyelitis, clinical score; test: Mouse experimental autoimmune encephalomyelitis assay (EAE); type: in vivo; conditions: C57Bl/6 mice, prophylactic oral dosing regimen
anti-dsDNA antibodies = test: MRL/lpr lupus model: anti-dsDNA antibody titers (ELISA); type: in vivo; conditions: MRL/lpr mice, p.o. daily
Experimental: (§1) MRL/lpr is a spontaneous model of lupus. Male MRL/lpr mice (Jackson Laboratory) at the age of 12-14 weeks were enrolled for the study (N=12). Mice were dosed p.o. daily with vehicle (18.4% (w/v) hydroxypropyl-b-cyclodextrin in 13.8 mM citric acid) or with Example 681 at 0.06, 0.3, 1.5 mg/kg. Mice were bled every other week for anti-dsDNA antibodies measured by ELISA using pooled serum from diseased MRL/lpr mice as a positive comparator in each assay. The data were expressed in arbitrary units as a ratio of the titer of the test serum to the titer of the pooled MRL/lpr immune serum.

kidney histology score = test: MRL/lpr lupus model: kidney histological analysis; type: in vivo; conditions: MRL/lpr mice, p.o. daily
Experimental: as §1
At the end of study, one kidney was collected into 10% neutral buffered formalin and ZincTris fixatives. Fixed tissues were processed into paraffin blocks, sectioned at […], and stained with H&E or PASH. Kidney sections were graded using following criteria: Glomerular Damage: 1. Mesangial matrix thickening, cell proliferation, 2. Crescent formation, cellular deposits/casts in Bowman's space, 3. Cellular infiltration, mononuclear cells in glomerular tufts, 4. Fibrosis of Bowman's capsule. Tubular damage: 1. Infiltration of mononuclear cells, 2. Severity of tubular damage, 3. Protein casts. Tubulo-interstitial damage: 1. Fibrosis, 2. Infiltration of mononuclear cells. Each subcategory was assigned a score from 0-4, with the scores for glomerular indices representing the mean from 20 glomeruli per kidney. […]

Sequence of S1P1 (P21453 whole entry): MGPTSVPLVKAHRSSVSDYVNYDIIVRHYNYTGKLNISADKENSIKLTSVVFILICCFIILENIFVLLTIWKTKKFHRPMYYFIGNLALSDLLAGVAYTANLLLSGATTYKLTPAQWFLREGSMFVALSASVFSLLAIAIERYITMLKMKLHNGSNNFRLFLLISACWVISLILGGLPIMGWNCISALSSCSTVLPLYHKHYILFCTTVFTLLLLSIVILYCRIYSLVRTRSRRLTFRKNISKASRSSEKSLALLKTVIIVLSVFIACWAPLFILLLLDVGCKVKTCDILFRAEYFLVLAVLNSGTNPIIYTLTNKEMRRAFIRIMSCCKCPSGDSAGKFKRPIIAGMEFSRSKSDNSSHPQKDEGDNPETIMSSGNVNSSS

| activity as an agonist of S1P1 (S1P1) | Structure (SMILES) | inhibition of disease progression as measured by reduced paw swelling [1] | inhibition of disease progression as measured by clinical scores [3] | also measured |
| --- | --- | --- | --- | --- |
| possessed activity as an agonist of S1P | COCCCCCC1CCc2cc([C@H]3CC[C@](N)(COP(=O)(O)O)C3)ccc2C1 (single isomer, unassigned) [Example 689] | – | – | selectivity over S1P3 (S1P3 (EDG3)): selective over S1P3 |
| possessed activity as an agonist of S1P1 | COc1ccccc1CCC1CCc2cc([C@H]3CC[C@](N)(COP(=O)(O)O)C3)ccc2C1 (single isomer, unassigned) [Example 697] | – | – | – |
| – | COCCCCC[C@H]1CCc2cc([C@H]3CC[C@](N)(CO)C3)ccc2C1 [Example 672, ((1R,3S)-1-amino-3-((S)-6-(5-methoxypentyl)-5,6,7,8-tetrahydronaphthalen-2-yl)cyclopentyl)methanol] | showed inhibition of disease progression | – | – |
| – | CCOCCC[C@@H]1CCc2cc([C@H]3CC[C@](N)(CO)C3)ccc2C1 [Example 679, ((1R,3S)-1-amino-3-((S)-6-(3-ethoxypropyl)-5,6,7,8-tetrahydronaphthalen-2-yl)cyclopentyl)methanol] | showed inhibition of disease progression | showed inhibition of disease progression; also recorded: inhibit disease progression | inhibition of disease progression as measured by reduced clinical scores [2]: showed inhibition of disease progression |
| – | COc1ccccc1CC[C@@H]1CCc2cc([C@H]3CC[C@](N)(CO)C3)ccc2C1 [Example 681, ((1R,3S)-1-amino-3-((S)-6-(2-methoxyphenethyl)-5,6,7,8-tetrahydronaphthalen-2-yl)cyclopentyl)methanol] | – | showed inhibition of disease progression; also recorded: inhibit disease progression | inhibition of disease progression as measured by anti-dsDNA titers (anti-dsDNA antibodies): showed inhibition of disease progression; inhibition of disease progression as measured by kidney histology (kidney histology score): showed inhibition of disease progression |
